Assay results as given in PMC5863515, “Re-evaluation of Adrenocorticotropic Hormone and Melanocyte Stimulating Hormone Activation of GPR139 in Vitro” (Frontiers in Pharmacology, 2018).
Where two headings read alike, the source gives them in different places.

Experiments:
[1] = molecular target: T1, MC3R + Gα16 (Homo sapiens, UniProt P41968); experiment: Calcium mobilization, HEK-293 transiently expressing MC3R + Gα16; type: cell-based
T1 construct: expressed in transfected cells; host or cells: HEK-293, pCIneo, transient (10 μg MCR:5 μg Gα16)
T1 sequence (P41968 whole entry): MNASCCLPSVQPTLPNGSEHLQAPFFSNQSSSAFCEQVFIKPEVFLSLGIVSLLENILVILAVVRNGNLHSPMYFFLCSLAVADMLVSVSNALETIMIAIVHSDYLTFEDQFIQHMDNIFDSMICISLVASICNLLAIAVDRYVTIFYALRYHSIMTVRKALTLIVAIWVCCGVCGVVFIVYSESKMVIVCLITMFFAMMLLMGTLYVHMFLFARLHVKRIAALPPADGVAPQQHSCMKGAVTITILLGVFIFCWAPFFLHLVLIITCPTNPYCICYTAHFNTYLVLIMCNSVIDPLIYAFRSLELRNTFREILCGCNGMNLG
Method: (§1) Human MC3R (NM_019888), MC4R (NM_005912), and MC5R (NM_005913) were transiently expressed in HEK-293 cells with and without human GPR139 (KR081941) or the chimeric G-protein Gα16. All genes were cloned into pCIneo (Promega, Madison, WI, United States, #E1841). HEK-293 cells were cultured in DMEM/F12 (Gibco, Grand Island, NY, United States, #11039-021), 10% FBS (Hyclone, Logan, UT, United States, # SH300700.03), 50 units/ml penicillin and 50 μg/ml streptomycin (Mediatech, Manassas, VA, United States, #30-001-CI). Cells were seeded at 4 × 10^6 cells in 10 cm dishes and allowed to grow overnight at 37°C, 5% CO2. On the day of transfection, culture media was replaced with F12-K (Mediatech, Manassas, VA, United States, #10-025-CV), 10% FBS, 20 mM HEPES (Hyclone, Logan, UT, United States, #SH30237.01) and transfected with 15 μg DNA (10 μg MCR:5 μg pCIneo, 10 μg MCR:5 μg Gα16 or 7.5 μg MCR:7.5 μg GPR139) using FuGene HD (Promega, Madison, WI, United States, #E2311) according to manufacturer’s instructions. MC3R, MC4R, and MC5R were also transiently expressed in the following GPR139 stably expressing cell lines using the FuGENE HD method: HEK-293 GPR139 clone#33, CHO-TREx GPR139 clone#18, and SK-N-MC/CRE TREx GPR139 clone#35. Stable cell lines were established according to method previously described ([Liu et al., 2015]).
(§2) Intracellular calcium mobilization was measured with the BD calcium kit (BD Bioscience, San Jose, CA, United States). The recombinant cell lines expressing MC3R, MC4R, and MC5R with and without GPR139 or Gα16 were seeded in culture media at a density of 50,000 cells/well into 96-well black/clear-bottom poly-D-lysine treated tissue culture plates. Cells were incubated overnight at 37°C and 5% CO2. Next day, culture media was removed and cells were washed with HBSS prior to dye-loading for 1 h at 37°C and 5% CO2. […] EC50s were calculated by fitting a three-parameter logistic curve using least-squares non-linear regression analysis as implemented in Graphpad Prism 7.0.

[2] = molecular target: MC3R + GPR139 (Homo sapiens, UniProt Q6DWJ6); experiment: Calcium mobilization, HEK-293 transiently expressing MC3R + GPR139; type: cell-based
Sequence of MC3R + GPR139 (P41968 whole entry partner, one chain of several): as the sequence (P41968 whole entry) above
Method: Intracellular calcium mobilization was measured with the BD calcium kit (BD Bioscience, San Jose, CA, United States). The recombinant cell lines expressing MC3R, MC4R, and MC5R with and without GPR139 or Gα16 were seeded in culture media at a density of 50,000 cells/well into 96-well black/clear-bottom poly-D-lysine treated tissue culture plates. Cells were incubated overnight at 37°C and 5% CO2. Next day, culture media was removed and cells were washed with HBSS prior to dye-loading for 1 h at 37°C and 5% CO2. Agonist stimulation and intracellular calcium measurements were done on the FLIPR Tetra (Molecular Devices, Sunnyvale, CA, United States). […] EC50s were calculated by fitting a three-parameter logistic curve using least-squares non-linear regression analysis as implemented in Graphpad Prism 7.0.

[3] = molecular target: T2, MC5R (Homo sapiens, UniProt P33032); experiment: Calcium mobilization, HEK-293 transiently expressing MC5R; type: cell-based; conditions: HEK-293 transient; read-out: Agonist potency (pEC50), MC5R (converted)
T2 construct: expressed in transfected cells; host or cells: HEK-293, pCIneo, transient (FuGene HD)
T2 sequence (P33032 whole entry): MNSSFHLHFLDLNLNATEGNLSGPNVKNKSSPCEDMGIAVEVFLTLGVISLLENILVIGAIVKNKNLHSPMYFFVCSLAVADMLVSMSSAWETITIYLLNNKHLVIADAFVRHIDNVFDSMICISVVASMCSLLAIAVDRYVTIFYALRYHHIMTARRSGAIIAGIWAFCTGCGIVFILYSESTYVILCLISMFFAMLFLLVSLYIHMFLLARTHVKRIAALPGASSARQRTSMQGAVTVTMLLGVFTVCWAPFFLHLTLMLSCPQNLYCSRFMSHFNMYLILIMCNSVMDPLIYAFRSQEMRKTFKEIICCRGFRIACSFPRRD
Method: as §1, §2

[4] = molecular target: T3, GPR139 (Homo sapiens, UniProt Q6DWJ6); experiment: Calcium mobilization, HEK-293 cells stably expressing human GPR139; type: cell-based; set-up: expressed in transfected cells
T3 sequence (Q6DWJ6 1-353): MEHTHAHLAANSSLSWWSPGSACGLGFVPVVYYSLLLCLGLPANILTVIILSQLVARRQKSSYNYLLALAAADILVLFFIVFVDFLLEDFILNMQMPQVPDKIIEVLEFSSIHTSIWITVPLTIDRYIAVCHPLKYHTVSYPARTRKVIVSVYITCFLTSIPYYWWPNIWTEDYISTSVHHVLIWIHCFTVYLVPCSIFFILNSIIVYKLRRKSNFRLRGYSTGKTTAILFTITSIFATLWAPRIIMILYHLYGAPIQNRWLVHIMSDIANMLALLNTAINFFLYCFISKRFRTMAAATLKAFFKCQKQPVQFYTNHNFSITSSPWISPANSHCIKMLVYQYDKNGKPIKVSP
Method: as §1
Intracellular calcium mobilization was measured with the BD calcium kit (BD Bioscience, San Jose, CA, United States). The recombinant cell lines expressing MC3R, MC4R, and MC5R with and without GPR139 or Gα16 were seeded in culture media at a density of 50,000 cells/well into 96-well black/clear-bottom poly-D-lysine treated tissue culture plates. Cells were incubated overnight at 37°C and 5% CO2. Next day, culture media was removed and cells were washed with HBSS prior to dye-loading for 1 h at 37°C and 5% CO2. Agonist stimulation and intracellular calcium measurements were done on the FLIPR Tetra (Molecular Devices, Sunnyvale, CA, United States). For receptor inhibition analysis, antagonists (1 μM HS-024 or 10 μM JNJ-3792165) were added off-line 15 min prior to agonist addition on the Tetra. For G-protein inhibitor experiments, cells were treated with 1 μM YM-254890 for 5 min prior to agonist additions on the Tetra. […] Responses in Figure 6 were normalized to its respective agonist response without antagonist. EC50s were calculated by fitting a three-parameter logistic curve using least-squares non-linear regression analysis as implemented in Graphpad Prism 7.0.

[5] = molecular target: T3, GPR139; experiment: [35S]-GTPγS binding assay, membranes of CHO-TREx cells stably expressing GPR139; type: biochemical; set-up: expressed in transfected cells; host or cells: CHO-TREx GPR139 clone#18; conditions: for Stimulation of [35S]-GTPγS incorporation after pertussis toxin treatment: 100 ng/ml pertussis toxin overnight; for Stimulation of [35S]-GTPγS incorporation after pertussis toxin treatment / Effect of YM-254890 on agonist [35S]-GTPγS response: data not shown; for Effect of YM-254890 on agonist [35S]-GTPγS response: 1 μM YM-254890 (Gq inhibitor); for EC50: CHO-TREx GPR139 membranes, mean ± SEM, read-out: pEC50, [35S]-GTPγS binding (converted)
Method: For G-protein inhibitor experiments, CHO-TRex cells stably expressing GPR139 were treated with 100 ng/ml pertussis toxin (Gi/o inhibitor) overnight prior to harvesting cells for membrane preparations. […] Reactions were terminated by rapid filtration through GF/C filterplates (Perkin-Elmer, Waltham, MA, United States) on a Cell Harvester (Perkin-Elmer, Waltham, MA, United States). Filterplates were washed three times with ice-cold wash buffer (50 mM Tris, 5 mM MgCl2) and Microscint-40 was added to each well. Bound radioactivity was measured on a Topcount scintillation counter (Perkin-Elmer, Waltham, MA, United States). […] EC50s were calculated by modeling the response associated with the logarithm of concentration as a three-parameter logistic curve with the Bottom plateau parameter fixed at 0. The fit was obtained using least-squares non-linear regression as implemented in GraphPad Prism 7.0.

[6] = molecular target: T3, GPR139; experiment: [3H]JNJ-63533054 radioligand binding assay, membranes of CHO-TREx cells stably expressing human GPR139; set-up: expressed in transfected cells; host or cells: CHO-TREx GPR139 clone#18
Method: Reaction was terminated by filtration through GF/C filterplates pre-treated with PEI (polyethyleneimine) followed by washes with ice-cold TE buffer. Filterplates were dried in a 60°C oven followed by addition of Microscint-0. Bound radioactivity was read on a Topcount scintillation counter. […] Half-maximal inhibitory concentrations (IC50s) of test compounds were calculated by fitting a three-parameter logistic curve using least-squares non-linear regression analysis as implemented in Graphpad Prism 7.0. The Top plateau was fixed at 100 and the Bottom was fixed at 0.

[7] = molecular target: MC4R + Gα16 (Homo sapiens, UniProt P32245); experiment: Calcium mobilization, HEK-293 transiently expressing MC4R + Gα16; type: cell-based; set-up: expressed in transfected cells; host or cells: HEK-293, pCIneo, transient (10 μg MCR:5 μg Gα16)
Sequence of MC4R + Gα16 (P32245 whole entry): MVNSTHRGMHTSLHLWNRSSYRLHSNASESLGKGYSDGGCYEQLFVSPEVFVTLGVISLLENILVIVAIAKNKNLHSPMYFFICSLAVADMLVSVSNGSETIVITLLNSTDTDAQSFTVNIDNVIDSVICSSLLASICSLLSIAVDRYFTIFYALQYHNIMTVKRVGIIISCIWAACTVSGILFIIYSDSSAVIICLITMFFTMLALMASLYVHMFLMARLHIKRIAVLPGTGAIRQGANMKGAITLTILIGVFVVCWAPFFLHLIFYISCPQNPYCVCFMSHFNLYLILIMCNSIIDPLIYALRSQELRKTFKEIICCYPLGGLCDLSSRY
Method: as §1, §2

[8] = HEK-293 transient, read-out: Agonist potency (pEC50), MC3R + Gα16 (converted)
[9] = HEK-293 stable GPR139, read-out: pEC50, calcium mobilization (converted)
[10] = 10 nM radioligand, CHO-TREx GPR139 membranes, read-out: pKi, displacement of [3H]JNJ-63533054 (converted)
[11] = HEK-293 transient, read-out: Agonist potency (pEC50), MC4R + Gα16 (converted)

With `C[C@H](NC(=O)CNC(=O)c1cccc(Cl)c1)c1ccccc1` [JNJ-63533054, 3-chloro-N-[2-oxo-2-[[(1S)-1-phenylethyl]amino]ethyl]benzamide] the EC50 [1, 8] was over 10 µM, the EC50 [2] was 0.0372 µM and the “Agonist potency (pEC50), MC3R + GPR139, No antagonist” value (shortened to “Agonist potency … No antagonist”) [2] was 7.43 ± 0.09. For the same molecule, the EC50 [3] was over 10 µM, the EC50 [4, 9] was 0.0214 µM and the “Stimulation of [35S]-GTPγS incorporation after pertussis toxin treatment” value (“Stimulation of [35S]-GTPγS incorporation” for short) [5] was “did not stimulate”. For the same molecule, the “Effect of YM-254890 on agonist [35S]-GTPγS response” value (“Effect of YM-254890 on agonist” for short) [5] was “had no effect”, the EC50 [5] was 0.0646 µM and the Ki [6, 10] was 0.0347 µM. The EC50 [7, 11] was over 10 µM.
With `N[C@@H](Cc1c[nH]c2ccccc12)C(=O)O` [L-Trp, L-tryptophan] the EC50 [1, 8] was over 3160 µM, the EC50 [2] was 87.1 µM and the “Agonist potency … No antagonist” value [2] was 4.06 ± 0.06. The EC50 [3] was over 3160 µM, the EC50 [4, 9] was 204 µM and the “Stimulation of [35S]-GTPγS incorporation” value [5] was “did not stimulate”. For the same molecule, the “Effect of YM-254890 on agonist” value [5] was “had no effect”, the EC50 [5] was 427 µM and the Ki [6, 10] was 646 µM. For the same molecule, the EC50 [7, 11] was over 3160 µM.
With `COc1cc(OC)cc(C(=O)NNC(=O)Nc2cccc3ccccc23)c1` [TC-O9311] the EC50 [1] was over 10 µM, the EC50 [2] was 0.0692 µM and the “Agonist potency … No antagonist” value [2] was 7.16 ± 0.08. The EC50 [3] was over 10 µM, the EC50 [4] was 0.0776 µM and the “Stimulation of [35S]-GTPγS incorporation” value [5] was “did not stimulate”. The “Effect of YM-254890 on agonist” value [5] was “had no effect”, the EC50 [5] was 0.178 µM and the Ki [6] was 0.0891 µM. It also gave an EC50 [7] of over 10 µM.
